{"source": "patent US20060246026A1", "about": "“Barrier formulation comprising a silicone based emulsion” (priority 2003, published 2006)", "tested_on": "bacterial counts on the fingertips", "experiment": "prEN 12791 in vivo anti-microbial activity on fingertips of volunteers", "parameters": "species or system human", "details": "after 3 minutes (immediate); 20 volunteers; 60% propanol compared with the formulation (p<0.0001)", "protocol": "The anti-microbial efficacy of the formulation of Example 5 was assessed in the clinical setting. The acceptability of the formulation of Example 5 by health care workers (HCW) was investigated. In vitro and in vivo assessment of the formulation was undertaken in accordance with European standards currently used for assessing hygienic and surgical rubs and washes (prEN 12054 and prEN 12791).\nprEN 12054 and prEN 12791 (European Standards for Assessing Hygienic and Surgical Hand Rubs and Washes) • In vitro antibacterial efficacy of the formulation was assessed for anti-microbial activity against Staphylococcus aureus ATCC 6538, Enterococcus hirae ATCC 10541, Pseudomonas aeruginosa ATCC 15442 and Escherichia coli NCTC 10536 in accordance with prEN 12054. In vivo anti-microbial activity of the formulation was compared with 60% (v/v) […] (gold standard) in accordance with […]. Twenty laboratory volunteers participated in the assessment of the formulation in accordance to prEN 12791.", "data": [{"smiles": "CCCO", "note": "[60% propanol, propanol]", "values": [{"measurement": "Mean reduction factor in the bacterial counts on the fingertips, immediate", "value": "significantly higher mean reduction factor"}]}]}
